# Experimental data from US7842805B2, “Pharmaceutical compounds as activators of caspases and inducers of apoptosis and the use thereof” (Myrexis, Inc., priority 2005, dated 2010).
# Tests used:
# T-47D [1] = assay: Caspase cascade activation assay (Ac-DEVD-R110 fluorogenic substrate); assay type: cell-based, Human; conditions: T-47D (24 hr); for EC50: Homo sapiens, T47D, read-out: Caspase potency EC50; for Caspase activity (Ratio): ratio of net RFU of test compound to control
# Protocol: Human breast cancer cell lines T-47D and DLD-1 were grown according to media component mixtures designated by American Type Culture Collection+10% FCS (Invitrogen Corporation), in a 5% CO2-95% humidity incubator at 37° C. T-47D and DLD-1 cells were maintained at a cell density between 50 and 80% confluency at a cell density of 0.1 to 0.6×10^6 cells/mL. Cells were harvested at 600×g and resuspended at 0.65×10^6 cells/mL into appropriate media+10% FCS. An aliquot of 22.5 μL of cells was added to a well of a 384-well microtiter plate containing 2.5 μL of a 10% DMSO in RPMI-1640 media solution containing 0.16 to 100 μM of benzo[d][1,2,3]triazin-4-yl-(4-methoxyphenyl)-methyl-amine or other test compound (0.016 to 10 μM final). An aliquot of 22.5 μL of cells was added to a well of a 384-well microtiter plate containing 2.5 μL of a 10% DMSO in RPMI-1640 media solution without test compound as the control sample. […] After incubation, the samples were removed from the incubator and 25 μL of a solution containing 14 μM of N—(Ac-DEVD)-N′-ethoxycarbonyl-R110 fluorogenic substrate (Cytovia, Inc.; WO99/18856), 20% sucrose (Sigma), 20 mM DTT (Sigma), 200 mM NaCl (Sigma), 40 mM Na PIPES buffer pH 7.2 (Sigma), and 500 μg/mL lysolecithin (Calbiochem) was added. The samples were mixed by agitation and incubated at room temperature. Using a fluorescent plate reader (Model SPECTRAfluor Plus, Tecan), an initial reading (T=0) was made approximately 1-2 min after addition of the substrate solution, employing excitation at 485 nm and emission at 530 nm, to determine the background fluorescence of the control sample. After the 3 h incubation, the samples were read for fluorescence as above (T=3 h).
# The Relative Fluorescence Unit values (RFU) were used to calculate the sample readings as follows: RFU(T=3h)−Control RFU(T=0)=Net RFU(T=3h)
# The activity of caspase cascade activation was determined by the ratio of the net RFU value for benzo[d][1,2,3]triazin-4-yl-(4-methoxy-phenyl)-methyl-amine or other test compounds to that of control samples. The EC50 (nM) was determined by a sigmoidal dose-response calculation (Prism 3.0, GraphPad Software Inc.).
# HT29 = assay: Inhibition of cell proliferation (GI50, CellTiter-Glo); assay type: cell-based; conditions: Homo sapiens, HT-29; HT29 cells, 48 h
# Protocol: (§1) T-47D, HT29, H1299, MX-1 and MDAMB435 cells were grown and harvested as in Example 29. An aliquot of […] of cells (4.4×10^4 cells/mL) was added to a well of a 96-well microtiter plate containing 5 μL of a 10% DMSO in RPMI-1640 media solution containing 10 nM to 100 μM of benzo[d][1,2,3]triazin-4-yl-(4-methoxy-phenyl)methyl-amine (1 nM to 10 μM final). An aliquot of 45 μL of cells was added to a well of a 96-well microtiter plate containing 5 μL of a 10% DMSO in RPMI-1640 media solution without compound as the control sample for maximal cell proliferation (LMax). The samples were mixed by agitation and then incubated at 37° C. for 48 h in a 5% CO2-95% humidity incubator. After incubation, the samples were removed from the incubator and 25 μL of CellTiter-Glo™ reagent (Promega) was added. The samples were mixed by agitation and incubated at room temperature for 10-15 min. Plates were then read using a luminescent plate reader (Model SPECTRAfluor Plus, Tecan) to give Ltest values.
# (§2) Baseline for GI50 (dose for 50% inhibition of cell proliferation) of initial cell numbers was determined by adding an aliquot of 45 μL of cells or 45 μL of media, respectively, to wells of a 96-well microtiter plate containing 5 μL of a 10% DMSO in RPMI-1640 media solution. The samples were mixed by agitation and then incubated at 37° C. for 0.5 h in a 5% CO2-95% humidity incubator. After incubation, the samples were removed from the incubator and 25 μL of CellTiter-Glo™ reagent (Promega) was added. The samples were mixed by agitation and incubated at 37° C. for 10-15 min at room temperature in a 5% CO2-95% humidity incubator. Fluorescence was read as above, (Lstart) defining luminescence for initial cell number used as baseline in GI50 determinations.
# (§3) GI50 (dose for 50% inhibition of cell proliferation) is the concentration where [(LTest−Lstart)/(LMax−Lstart)]=0.5.
# T-47D [2] = assay: as above; assay type: cell-based; conditions: Homo sapiens, T47D; T-47D cells, 48 h
# Protocol: as §1, §2, §3
# MDAMB435 = assay: as above; assay type: cell-based; conditions: Homo sapiens, MDA-MB-435; MDAMB435 cells, 48 h
# Protocol: as §1, §2, §3
# MX-1 = assay: as above; assay type: cell-based; conditions: Homo sapiens, MX1; MX-1 cells, 48 h
# Protocol: as §1, §2, §3
# H1299 = assay: as above; assay type: cell-based; conditions: Homo sapiens, NCI-H1299; H1299 cells, 48 h
# Protocol: as §1, §2, §3
EC50 (T-47D [1]) [nM],GI50 (HT29) [nM],GI50 (T-47D [2]) [nM],GI50 (MDAMB435) [nM],GI50 (H1299) [nM],Structure (SMILES),Caspase activity (Ratio) (T-47D [1]),GI50 (MX-1) [nM]
106,200,120,62,106,"COc1ccc(N(C)c2nncc3ccccc23)cc1 [Example 2, (4-Methoxy-phenyl)-methyl-phthalazin-1-yl-amine]",11.1,52
16,50,50,7,40,"COc1ccc(N(C)c2nnnc3ccccc23)cc1 [Example 1, Benzo[d][1,2,3]triazin-4-yl-(4-methoxy-phenyl)-methyl-amine]",9.3,50
